In experiment [1] the target is T1, Bcl-xL (Homo sapiens, UniProt Q07817, DEL45-84).
T1 construct: His6 (C); made in house
In words: NMR titration of Bcl-xL. It is filed as binding. To be noted: for relative order of affinities, NMR titrations: rank order. How it is done:
To verify this conclusion, NMR titrations of Bcl-xL with BH3I-1s were performed and their Ki values were determined (FIG. 4). […] The BH3I-1s Ki values obtained by the NMR approach agree with the results of both pulldown and SELDI analyses. Therefore, the order of affinities of BH3Is is: BH312′>BH3I-2>BH3I-2″>BH3I-1>BH3I-1′>BH3I-1″>BH3I-1′″.
NMR titration was used to examine whether BH3Iinteracts with the binding pocket of Bcl-xL in a manner similar to Bak BH3 peptide (Hajduk et al., Science 278:497-499, 1997).
Next, changes in Bcl-xL structure upon addition of increasing amounts of BH3Is were determined. Each of the BH3Is induced significant changes in the Bcl-xL structure. The compounds targeted the hydrophobic cleft formed by the BH1, BH2, and BH3 domains on the surface of the Bcl-xL protein, and primarily bound to the area formed by BH1 and BH2 domains.

Experiment [2] has as its system HeLa cells. Briefly: Cell death by ATP levels after zVAD-fmk pretreatment. It is filed as cell-based. The following applies: zVAD-fmk 100 μM pretreatment, 48 or 72 hours. How it is done:
The conditions under which cell death occurs in the presence of BH3Is were further evaluated. HeLa cells were pretreated with zVAD-fmk (100 μM) for 1 hour. The purpose of such a treatment was to inhibit the intracellular pathways mediating cell death by apoptosis. Each of the chemical compounds BH3I-1, BH3I-1′, or BH3I-2 was then added to the media of the cells of three separate samples. After 48 or 72 hours of exposure of the cells to zVAD-fmk and the chemical compound, the level of cell death was measured for each sample, by measuring cellular ATP levels.

For experiment [3], the system named is Jurkat cells. Briefly: Cell death by cellular ATP levels. It is filed as cell-based. The following applies: 48 hours. The procedure:
(§1) HeLa cells, U-937 cells, or Jurkat cells, each of which endogenously express both Bak and Bcl-xL, were contacted with each of the BH3I chemical compounds identified above, by adding the compound to the cell culture media. Forty-eight hours after the cells received the chemical compound the cell culture sample was evaluated for the level of cell death that had occurred in response to the chemical compound. The level of cell death was determined by measuring cellular ATP levels, wherein a decrease in cellular ATP levels indicated an increase in cell death. In each cell line, cell death was increased in the sample that received one of the above-identified compounds.

In experiment [4] the test system is HeLa cells. Briefly: Cell death by cellular ATP levels. Type of experiment: cell-based. To be noted: 48 hours. How it is done: as §1
The test system of experiment [5] is U-937 cells. In words: Cell death by cellular ATP levels. Type of experiment: cell-based. To be noted: 48 hours. How it is done:
as §1

For orientation: GI50 means the concentration giving 50% growth inhibition.

T1 sequence (Q07817 with tags, fused parts or gaps DEL45-84 limits assumed): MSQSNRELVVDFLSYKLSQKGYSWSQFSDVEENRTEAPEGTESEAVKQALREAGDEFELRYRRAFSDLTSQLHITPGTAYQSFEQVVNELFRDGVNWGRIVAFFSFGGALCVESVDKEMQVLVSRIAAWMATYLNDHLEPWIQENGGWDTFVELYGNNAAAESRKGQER

As for `CC(C)C(C(=O)O)N1C(=O)C(=Cc2ccc(Br)cc2)SC1=S` (stereo in doubt) [BH3I-1], in experiment [1], the “NOE magnetization transfer to Bcl-xL residues Y65 and F107” value is “direct contact between BH3I-1 and these residues”; the “relative order of affinities, NMR titrations” value was “BH3I-1>BH3I-1′>BH3I-1″>BH3I-1′″”. Moreover, the “NMR derived Ki value, compared” value in experiment [1] (compared with fluorescence polarization Ki of BH3I-2) is on record as “lower than the fluorescence polarization assay derived Ki value of BH3I-2”. For the same compound, the “cellular ATP levels” value in experiment [2] is recorded as “cellular ATP levels decreased”.

Regarding `O=C(Nc1cc(S(=O)(=O)c2ccc(Cl)cc2)ccc1Cl)c1cc(Cl)cc(Br)c1O` [BH3I-2], the “cellular ATP levels” value in experiment [2] is “cellular ATP levels decreased”. For the same compound, the concentration for 50% growth inhibition (GI50) in experiment [3], in experiment [4] and in experiment [5] was 10 to 15 µM each time.

On to `CC(C)C(C(=O)O)N1C(=O)/C(=C/c2ccccc2)SC1=S` (stereo not drawn) [BH3I-1″], for which, in experiment [1], the “relative order of affinities, NMR titrations” value is recorded as “BH3I-1>BH3I-1′>BH3I-1″>BH3I-1′″”.

The record behind these values is patent US7390836B2, “Small molecules used to increase cell death” (priority 1999, dated 2008).
